According to the supplement of paper PMC9763283:

Key:
Assay in all cases: area under growth-rate inhibition curve (AUC GRI) (dimensionless (GR-based AUC)); higher = less growth inhibition
Conditions in all cases: exposure time: 72 h; concentrations: 0.1, 1, 10 uM
BT474-LTR = system: BT474-LTR
Procedure, shortened: (§1)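 Six breast cancer cell line models were used: two triple-negative lines, plus parental HER2+ lines and HER2+ lines resistant to a two-drug combination, each plated at an optimised log-phase density and treated with compound at 0.1, 1 or 10 µM for 72 h. After fixation in 4% paraformaldehyde, nuclei were stained with Hoechst 33342 or DAPI, imaged and counted. Growth was corrected using Day 0 plates, untreated Day 3 plates and DMSO controls, with 2 biological replicates. These corrected counts gave the area under the growth-rate inhibition curve.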

BT474-P = system: BT474-P
Procedure, shortened: as §1

MDA-MB-231 = system: MDA-MB-231
Procedure, shortened: as §1

MDA-MB-468 = system: MDA-MB-468
Procedure, shortened: as §1

SKBR3-LTR = system: SKBR3-LTR
Procedure, shortened: as §1

SKBR3-P = system: SKBR3-P
Procedure, shortened: as §1

Structure (SMILES)	area under growth-rate inhibition curve (BT474-LTR)	area under growth-rate inhibition curve (BT474-P)	area under growth-rate inhibition curve (MDA-MB-231)	area under growth-rate inhibition curve (MDA-MB-468)	area under growth-rate inhibition curve (SKBR3-LTR)	area under growth-rate inhibition curve (SKBR3-P)
Cc1ccc(OCC(O)C(C)NC(C)C)c2c1CCC2.[Cl-].[H+] (stereo not given)	1.11	1.04	1.06	1.05	1.07	1.01
Cc1cccc(C)c1NC1=NCCCS1.[Cl-].[H+] [Xylazine HCl]	1.12	1.04	1.02	1.04	1.07	1.01
Nc1cccc2c1CN(C1CCC(=O)NC1=O)C2=O (stereo not given) [lenalidomide]	1.03	1.01	1.04	1.04	1.06	1.02
CN(C)CCc1c[nH]c2ccc(CS(=O)(=O)N3CCCC3)cc12.O=C(O)CC(O)C(=O)O [Almotriptan Malate]	1.09	1.02	1.02	1.04	1.06	1.02
N=C(N)NCCC[C@@H](NC(=O)[C@@H]1CCCN1C(=O)[C@@H]1CSSCCC(=O)N[C@@H](Cc2ccc(O)cc2)C(=O)N[C@@H](Cc2ccccc2)C(=O)N[C@@H](CCC(N)=O)C(=O)N[C@@H](CC(N)=O)C(=O)N1)C(=O)NCC(N)=O [Desmopressin]	0.999	0.995	1.01	1.02	1.01	1.02
CN1CCN(C2=Nc3ccccc3Oc3ccc(Cl)cc32)CC1 [Loxapine]	1.03	0.995	1.04	1.03	1.06	1.02
CCC(=C(c1ccc(O)cc1)c1ccc(OCCN(C)C)cc1)c1ccccc1 [4-hydroxytamoxifen]	0.936	0.865	0.935	0.896	0.934	0.979
CN(C)CCOc1ccc(/C(=C(/CCCl)c2ccccc2)c2ccccc2)cc1.O=C(O)CC(O)(CC(=O)O)C(=O)O [Toremifene Citrate]	0.945	0.893	0.941	0.908	0.977	0.98
CC(C)(C)NC[C@@H](O)COc1nsnc1N1CCOCC1.O=C(O)/C=C\C(=O)O [Timolol Maleate]	1.11	1.04	1.03	1.04	1.06	1.02
C[C@H](Cc1cc2c(c(C(N)=O)c1)N(CCCO)CC2)NCCOc1ccccc1OCC(F)(F)F [Silodosin]	1.1	1.06	1.04	1.05	1.1	1.03
CCN(CC)CC#CCOC(=O)C(O)(c1ccccc1)C1CCCCC1.[Cl-].[H+] (stereo not given) [Oxybutynin chloride]	1.1	1.02	1.04	0.992	1.04	0.999
CN[C@@H]1CC[C@@H](c2ccc(Cl)c(Cl)c2)c2ccccc21.[Cl-].[H+] [Sertraline HCl]	0.972	0.935	0.918	0.907	0.981	0.963
O=C(Nc1cccc(Cl)c1)c1ccccn1	1.06	1.02	1.03	1.02	1.04	1.01
CC(COc1ccccc1)N(CCCl)Cc1ccccc1.[Cl-].[H+] (stereo not given) [Phenoxybenzamine HCl]	0.978	0.997	0.984	1	1.01	1.01
COc1ccc(C[C@@H]2c3cc(OC)c(OC)cc3CC[N@+]2(C)CCC(=O)OCCCCCOC(=O)CC[N@@+]2(C)CCc3cc(OC)c(OC)cc3[C@H]2Cc2ccc(OC)c(OC)c2)cc1OC.O=S(=O)([O-])c1ccccc1.O=S(=O)([O-])c1ccccc1 [Cisatracurium Besylate]	1.01	0.998	0.997	0.988	1.01	0.961
CS(=O)(=O)c1ccc(C(=O)Nc2ccc(Cl)c(-c3ccccn3)c2)c(Cl)c1 [Vismodegib (GDC-0449)]	1.08	1.03	1.03	0.997	1.03	1.03
CNCC(O)c1ccc(O)cc1.Cl (stereo not given) [Synephrine HCl]	1.11	1.05	0.993	1.05	1.07	1.01
Cl.NC(CO)C(=O)NNCc1ccc(O)c(O)c1O (stereo not given) [Benserazide HCl]	1.1	1.05	1.05	1.06	1.05	1.03
CNCC(O)c1ccc(O)c(O)c1.[Cl-].[H+] (stereo not given) [Epinephrine HCl]	1.07	1.04	0.965	1	1.03	1.02
N=C(N)N/N=C/c1c(Cl)cccc1Cl [Guanabenz Acetate]	1.1	1.03	1.03	1	1.08	1.01

Structure (SMILES)	area under growth-rate inhibition curve (BT474-LTR)	area under growth-rate inhibition curve (BT474-P)	area under growth-rate inhibition curve (MDA-MB-231)	area under growth-rate inhibition curve (MDA-MB-468)	area under growth-rate inhibition curve (SKBR3-LTR)	area under growth-rate inhibition curve (SKBR3-P)
CN1CCC(=C2c3ccccc3CCn3c(C=O)cnc32)CC1 [Alcaftadine]	1.04	1	1.04	1.03	1.06	1.02
CCC(=O)O[C@@]1(C(=O)SCF)[C@H](C)CC2C3CC(F)C4=CC(=O)C=C[C@]4(C)[C@]3(F)C(O)C[C@@]21C (stereo not given in full) [Fluticasone propionate]	1.04	0.985	0.973	1.04	1.05	0.915
CCN(CC)CCNC(=O)c1cc(Cl)c(N)cc1OC.Cl [MetoclopraMide HCl]	1.09	1.04	1.05	1.01	1.04	1.02
COc1cc(C(C)=O)ccc1OCCCN1CCC(c2noc3cc(F)ccc23)CC1 [Iloperidone]	1.02	0.979	1.04	1.03	1.07	0.991
Cl.Clc1cccc(Cl)c1NC1=NCCN1 [Clonidine HCl]	1.16	1.08	1.05	1.07	1.06	1.04
COc1ccccc1N1CCN(CC(O)COc2cccc3ccccc23)CC1 (stereo not given) [Naftopidil]	1.08	1.01	1.04	1.02	1.07	1
COc1ccc(C[C@H](C)NC[C@@H](O)c2ccc(O)c(NC=O)c2)cc1.COc1ccc(C[C@H](C)NC[C@@H](O)c2ccc(O)c(NC=O)c2)cc1.O=C(O)/C=C/C(=O)O [Formoterol Hemifumarate]	1.05	1.01	0.93	1.01	1.09	1.03
CN1C2CCC1CC(OC(=O)C(CO)c1ccccc1)C2 (stereo not given) [Atropine]	1.11	1.04	1.03	1.04	1.09	1.03
CCCN1CCO[C@H]2c3cc(O)ccc3OC[C@@H]21	1.06	1.08	1.02	1.03	1.05	1.03
C[C@H]1CN(C[C@H](Cc2ccccc2)C(=O)NCC(=O)O)CC[C@@]1(C)c1cccc(O)c1 [Alvimopan]	1.03	0.995	1.03	1.03	1.04	1.02
Cc1c(C(=O)Nc2ccc(N3CC(C)OC(C)C3)nc2)cccc1-c1ccc(OC(F)(F)F)cc1 (stereo not given) [LDE225 (NVP-LDE225,Erismodegib)]	1.04	0.909	0.921	0.915	1.03	0.981
[Cl-].[H+].c1ccc(CC2=NCCN2)cc1 [Tolazoline HCl]	1.1	1.06	1.04	1.05	1.1	1.02
CCN1CCCC1CNC(=O)c1cc(S(=O)(=O)CC)c(N)cc1OC (stereo not given) [Amisulpride]	0.985	1.01	0.988	1.01	0.975	1.02
C[C@]12CC[C@@H]3c4ccc(O)cc4C[C@@H](CCCCCCCCCS(=O)CCCC(F)(F)C(F)(F)F)[C@H]3[C@@H]1CC[C@@H]2O (stereo not given in full) [Fulvestrant]	0.986	0.778	1.02	0.96	1.01	0.952
CCCCc1ncc(C=C(Cc2cccs2)C(=O)O)n1Cc1ccc(C(=O)O)cc1.CS(=O)(=O)O [Eprosartan mesylate]	1.06	1.02	1.04	1.05	1.06	1.03
C[C@]12CC[C@@H]3c4ccc(O)cc4CC[C@H]3[C@@H]1CCC2=O [Estrone]	1.08	1.07	1.03	1	1.05	1.02
CN1CCN(c2nc3ccccc3nc2Cl)CC1	1.01	0.997	0.97	0.986	1.01	0.987
CC12CCC3=C4CCC(=O)C=C4CCC3C1CCC2(O)CC#N (stereo not given) [Dienogest]	1.12	1.05	1.03	1.03	1.04	1.01
NC(=O)OCC(COC(N)=O)c1ccccc1 [Felbamate]	1.02	1.01	1.04	1.03	1.05	1.03
CC12CCC(=O)C=C1C1CC1C1C2CCC2(C)C1C1CC1C21CCC(=O)O1 (stereo not given) [Drospirenone]	1.09	1.04	1.01	1.05	1.05	1.03
